≈ marks a conversion by molar mass, not a printed value.
Key:
[1] = target: T1, Interleukin-1 receptor-associated kinase 4 (Homo sapiens, UniProt Q9NWZ3); test: Inhibition of IRAK4 in human THP1-Xblue-MD2-CD14 cells assessed as reduction in LPS-induced NFkappaB transcription by measuring alkaline phosphatase level preincubated for 1 hr followed by LPS stimulation and measured after 20 hrs by quanti-blue reagent based reporter assay
T1 sequence (Q9NWZ3 whole entry): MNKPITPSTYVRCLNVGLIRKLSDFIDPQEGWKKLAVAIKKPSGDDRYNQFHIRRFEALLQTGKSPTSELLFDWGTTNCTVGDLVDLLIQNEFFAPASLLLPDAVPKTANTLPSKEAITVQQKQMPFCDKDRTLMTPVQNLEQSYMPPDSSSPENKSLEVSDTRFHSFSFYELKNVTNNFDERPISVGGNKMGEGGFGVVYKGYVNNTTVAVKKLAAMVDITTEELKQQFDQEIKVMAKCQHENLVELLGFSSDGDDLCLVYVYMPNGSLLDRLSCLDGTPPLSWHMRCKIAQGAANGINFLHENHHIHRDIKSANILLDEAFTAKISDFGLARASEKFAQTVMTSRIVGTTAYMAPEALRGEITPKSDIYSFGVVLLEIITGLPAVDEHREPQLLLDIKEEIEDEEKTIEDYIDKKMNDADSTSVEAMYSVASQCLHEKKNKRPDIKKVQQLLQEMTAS

[2] = target: T1, Interleukin-1 receptor-associated kinase 4; test: Inhibition of human recombinant full length His6-tagged IRAK4 expressed in baculovirus expression system using H-KKARFSRFAGSSPSQSSMVAR as substrate incubated for 90 mins by fluorescence polarisation assay
[3] = Oral bioavailability in mouse at 100 mg/kg administered as suspension in MCT; assay type: ADME, organism-based; conditions: in vivo
[4] = Protein binding in human plasma at 5 uM incubated for 4 hrs by LC-MS/MS analysis; assay type: ADME, cell-free; conditions: read-out: PPB (converted)
[5] = Cmax in mouse at 30 mg/kg, po; assay type: ADME, organism-based; set-up: dose 30 mg/kg, route oral; conditions: in vivo
[6] = Cmax in mouse at 10 mg/kg, po; assay type: ADME, organism-based; set-up: dose 10 mg/kg, route oral; conditions: in vivo
[7] = Oral bioavailability in mouse at 5 mg/kg; assay type: ADME, organism-based; conditions: in vivo
[8] = target: T2, Interleukin-1 receptor-associated kinase 4 (Homo sapiens) (UniProt Q9NWZ3); test: Inhibition of human recombinant full length His6-tagged IRAK4 expressed in baculovirus expression system at 1 uM relative to control
T2 sequence (whole entry): T1 sequence (Q9NWZ3 whole entry)

[9] = Oral bioavailability in mouse at 30 mg/kg; assay type: ADME, organism-based; conditions: in vivo
[10] = target: Interleukin-1 receptor-associated kinase 1 (Homo sapiens, UniProt P51617); test: Inhibition of human recombinant full length N-terminal His6-tagged IRAK1 (Argl94 to Ser712 residues) expressed in insect cells using H-KKARFSRFAGSSPSQSSMVAR as substrate incubated for 60 mins by fluorescence polarisation assay
[11] = Protein binding in mouse plasma at 5 uM incubated for 4 hrs by LC-MS/MS analysis; assay type: ADME, cell-free; conditions: read-out: PPB (converted)
[12] = Cmax in mouse at 5 mg/kg, po; assay type: ADME, organism-based; set-up: dose 5 mg/kg, route oral; conditions: in vivo, read-out: Cmax
[13] = AUC (infinity) in mouse at 10 mg/kg, po; assay type: ADME, organism-based; set-up: dose 10 mg/kg, route oral, time infinity; conditions: in vivo
[14] = Cmax in mouse at 100 mg/kg, po administered as suspension in MCT; assay type: ADME, organism-based; set-up: dose 100 mg/kg, route oral; conditions: in vivo
[15] = Volume of distribution at steady state in mouse at 1 mg/kg, iv; assay type: ADME, organism-based; conditions: in vivo, read-out: Vdss
[16] = Apparent permeability from apical to basolateral side in MDCK cells at 10 uM incubated for 180 mins and measured up to 180 min by LC-MS/MS analysis; assay type: ADME, cell-based, Canis lupus familiaris; conditions: dog
[17] = AUC (infinity) in mouse at 5 mg/kg, po; assay type: ADME, organism-based; set-up: dose 5 mg/kg, route oral, time infinity; conditions: in vivo
[18] = Kinetic aqueous solubility of the compound in PBS buffer at pH 7.4 incubated for 24 hrs under shaking condition by LC-CLND assay; assay type: physicochemical; conditions: for solubility kinetic at 24 h: PBS buffer, pH 7.4, read-out: Kinetic_solubility
[19] = Oral bioavailability in mouse at 10 mg/kg; assay type: ADME, organism-based; conditions: in vivo
[20] = AUC (infinity) in mouse at 30 mg/kg, po; assay type: ADME, organism-based; set-up: dose 30 mg/kg, time infinity, route oral; conditions: in vivo
[21] = AUC (infinity) in mouse at 100 mg/kg, po administered as suspension in MCT; assay type: ADME, organism-based; set-up: dose 100 mg/kg, time infinity, route oral; conditions: in vivo
[22] = target: T1, Interleukin-1 receptor-associated kinase 4; test: Inhibition of recombinant IRAK4 (unknown origin) using KKARFSRFAGSSPSQSSMVAR as substrate in presence of [gamma33P]-ATP by liquid scintillation counting method
[23] = Lipophilicity, log D of the compound; assay type: physicochemical; conditions: octanol/water
Homo sapiens = species on record: Homo sapiens; test: Selectivity ratio, ratio of Ki for human recombinant full length N-terminal His6-tagged IRAK1 (Argl94 to Ser712 residues) expressed in insect cells to Ki for human recombinant full length His6-tagged IRAK4 expressed in baculovirus expression system
[24] = Cytotoxicity against human THP1-Xblue-MD2-CD14 cells assessed as reduction in cell viability up to 20 uM preincubated for 1 hr followed by LPS stimulation and measured after 20 hrs; assay type: cell-based

Sequence of Interleukin-1 receptor-associated kinase 1 (P51617 whole entry): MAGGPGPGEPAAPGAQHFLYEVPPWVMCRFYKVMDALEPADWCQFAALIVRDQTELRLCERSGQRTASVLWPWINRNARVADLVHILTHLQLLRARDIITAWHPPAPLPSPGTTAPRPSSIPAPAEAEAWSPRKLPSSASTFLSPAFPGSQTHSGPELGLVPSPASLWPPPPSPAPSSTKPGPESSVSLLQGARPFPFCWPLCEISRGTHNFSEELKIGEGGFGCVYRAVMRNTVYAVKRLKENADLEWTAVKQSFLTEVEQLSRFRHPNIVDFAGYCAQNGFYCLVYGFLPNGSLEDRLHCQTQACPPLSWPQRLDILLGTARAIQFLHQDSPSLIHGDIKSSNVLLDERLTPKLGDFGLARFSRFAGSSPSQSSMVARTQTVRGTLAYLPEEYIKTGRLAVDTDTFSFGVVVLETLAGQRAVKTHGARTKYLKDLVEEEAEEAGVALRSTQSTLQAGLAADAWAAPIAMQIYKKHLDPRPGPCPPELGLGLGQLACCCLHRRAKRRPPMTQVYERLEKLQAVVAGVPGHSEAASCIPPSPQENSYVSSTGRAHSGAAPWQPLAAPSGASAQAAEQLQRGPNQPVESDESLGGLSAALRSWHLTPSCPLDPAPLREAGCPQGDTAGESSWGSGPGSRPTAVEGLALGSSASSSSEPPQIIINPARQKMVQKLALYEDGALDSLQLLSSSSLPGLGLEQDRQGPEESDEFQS

Row | IC50 [1] [nM] | Ki [2] [nM] | Ki [10] [nM] | Papp A→B at 3 h, 10 µM [16] [×10⁻⁶ cm/s] | solubility kinetic at 24 h [18] [µM] | Structure (SMILES) | other results
1 | 76 | 0.8 | 190 | 12 |  | O=C(Nc1cc2sc(N3CCOCC3)nc2cc1N1CCOCC1)c1cnn2cccnc12 | F [3]: 6%; fraction unbound at 4 h, 5 µM [4]: 0.05; Cmax [5]: 2000 nM; Cmax [6]: 1300 nM; bioavailability [7]: 5%; inhibition [8]: > 70%; bioavailability [9]: 12%; fraction unbound at 4 h, 5 µM [11]: 0.01; Cmax [12]: 200 nM; AUC [13]: 12 µM·h; Cmax [14]: 3300 nM; Vd [15]: 0.9 L/kg; AUC(0-inf) [17]: 0.6 µM·h; Kinetic_solubility ([18]; buffer, pH 7.4, 24 h): Insoluble; F [19]: 25%; AUC(0-inf) [20]: 11 µM·h; AUC [21]: 40 µM·h
2 | 3000 | 170 | 5400 |  |  | O=C(Nc1cc2cnc(N3CCOCC3)nc2cc1N1CCCCC1)c1cnn2cccnc12 | 
3 | 53 |  |  |  | 7.1 (≈ 3.08 µg/mL) | CC1(C)Cc2cc(NC(=O)c3cnn4cccnc34)c(N3CCC(C(N)=O)CC3)cc2O1 | 
4 | 910 | 95 | > 10000 |  |  | CCn1c(N2CCOCC2)nc2cc(N3CCC(CO)CC3)c(NC(=O)c3cnn4cccnc34)cc21 | 
5 |  |  |  | 27 | 10 (≈ 4.09 µg/mL) | C[C@@]1(CO)Cc2cc(NC(=O)c3cnn4cccnc34)c(N3CCOCC3)cc2O1 | 
6 | 97 |  |  | 8.2 | 120 (≈ 52.4 µg/mL) | CC1(C)Cc2cc(NC(=O)c3cnn4cccnc34)c(N3CCN(CCO)CC3)cc2O1 | 
7 | > 20000 | > 8400 |  |  | 77 (≈ 31.5 µg/mL) | CC1(C)Cc2cc(NC(=O)c3cnn4c(O)ccnc34)c(N3CCOCC3)cc2O1 | 
8 |  |  |  |  |  | COc1cc2cccnc2cc1NC(=O)c1cnn2cccnc12 | Ki [22]: > 30000 nM
9 | 130 |  |  |  | 25 (≈ 10.5 µg/mL) | CC1(C)Cc2cc(NC(=O)c3cnn4cccnc34)c(N3CCCC(O)CC3)cc2O1 (centres undefined) | 
10 | 35 | 1.7 | 400 |  | 1 (≈ 0.402 µg/mL) | O=C(Nc1cc2cccnc2cc1N1CCC(CO)CC1)c1cnn2cccnc12 | logD [23]: 3.1; Ratio Ki (Homo sapiens): > 200; Activity [24]: Non-Toxic
11 | 84 | 6.1 |  | 2.7 | 1 (≈ 0.418 µg/mL) | CC1(C)Cc2cc(NC(=O)c3cnn4cc(C#N)cnc34)c(N3CCOCC3)cc2O1 | 
12 | 370 | 52 | 2800 |  |  | COc1cc2ncccc2cc1NC(=O)c1cnn2cccnc12 | 
13 | 250 | 1.7 | > 5500 |  |  | O=C(Nc1cc2[nH]c(N3CCOCC3)nc2cc1N1CCC(CO)CC1)c1cnn2cccnc12 | 
14 | 41 | 2 | 510 |  | 22 (≈ 8.83 µg/mL) | NCC1CCN(c2cc3ncccc3cc2NC(=O)c2cnn3cccnc23)CC1 | logD [23]: 0.79; Ratio Ki (Homo sapiens): > 200; Activity [24]: Non-Toxic
15 | 170 | 5.3 |  | 14 | 1 (≈ 0.393 µg/mL) | CC1(C)Cc2cc(NC(=O)c3cnn4cccnc34)c(N3CCOCC3)cc2O1 | Ratio Ki (Homo sapiens): 220
16 | > 20000 | 34 |  | 0.6 | 1 (≈ 0.459 µg/mL) | CC1(C)Cc2cc(NC(=O)c3cnn4cc(OC(F)F)cnc34)c(N3CCOCC3)cc2O1 | 
17 | 1200 | 31 |  |  | 2.5 (≈ 1.11 µg/mL) | CC1(C)Cc2cc(NC(=O)c3cnn4cc(C(F)F)cnc34)c(N3CCOCC3)cc2O1 | 
18 | 330 | 6.7 | > 5700 |  |  | O=C(Nc1cc2[nH]cnc2cc1N1CCC(CO)CC1)c1cnn2cccnc12 | 
19 | 230 | 7.4 |  | 13 | 130 (≈ 58.3 µg/mL) | CN1CCC2(CC1)Cc1cc(NC(=O)c3cnn4cccnc34)c(N3CCOCC3)cc1O2 | 
20 |  |  |  |  |  | COc1cc2cc[nH]c2cc1NC(=O)c1cnn2cccnc12 | Ki [22]: 790 nM

— ChEMBL document CHEMBL4359811, “Development of Potent and Selective Pyrazolopyrimidine IRAK4 Inhibitors” (J Med Chem, 2019)
